The values below come from PMC8227935, “In Silico Predicted Antifungal Peptides: In Vitro and In Vivo Anti-Candida Activity” (Journal of Fungi, 2021).

Data set [1] deals with C. albicans SC5314. The data set is classed as cell-based, Candida albicans. The protocol: The candidacidal activity of ISDPs was evaluated by conventional colony forming unit (CFU) assays, as previously described. ISDPs were tested at serial dilutions to determine the half maximal effective concentration (EC50) values. Briefly, approximately 500 germinating C. albicans SC5314 cells were suspended in 100 µL of distilled water in the presence or absence (control growth) of ISDPs. After incubation at 37 °C for 6 h, cell suspensions were plated on Sabouraud dextrose agar. CFUs were enumerated after 48–72 h of incubation at 30 °C, and candidacidal activity was determined as a percentage of CFU reduction. Each assay was carried out in triplicate and at least two independent experiments were performed for each condition. EC50 was calculated by nonlinear regression analysis using GraphPad Prism 5 software. Afterwards, the kinetics of ISDPs killing activity, at their 2× EC50 value concentration, was determined by CFU assays up to 6 h. Samples were collected for CFU determination after 5, 10, 15, 20, 30, 60, 120, 240, and 360 min incubation.
Figure 1 Time kinetics of in vitro activity of in silico designed peptides (ISDPs) against Candida albicans SC5314. Peptide concentrations were equal to their 2× EC50 values. The activity is expressed as percental killing; reported data represent mean values ± standard deviation.

Data set [2] concerns human red blood cells (hRBCs). In words: Hemolytic activity, hemoglobin release. The data set is classed as cell-based. The following applies: human red blood cells (group 0 Rh+), 50 µM peptide, 37 °C, absorbance 540 nm, PBS 0%, Triton 1% 100%. The protocol: Hemolytic and cytotoxic effects were determined as previously described. In particular, ISDPs (final concentrations of 25, 50, and 100 µM) were tested for their hemolytic activities against human red blood cells (hRBCs) (group 0 Rh+). After 30 and 120 min incubation at 37 °C, the release of hemoglobin was monitored by measuring the absorbance of the supernatant at 540 nm. Controls for zero hemolysis (blank) and 100% hemolysis consisted of hRBCs suspended in PBS and Triton 1%, respectively.

In data set [3] the test system is monkey kidney epithelial cells (LLC-MK2). In words: MTT cytotoxicity assay. The data set is classed as cell-based. Conditions: 200 µM peptide, 24 h, vs. 100% of untreated control cells. The method, then: MTT assay, based on the ability of metabolically active cells to convert the yellow water-soluble tetrazolium salt into formazan crystals, was used to evaluate peptide cytotoxicity against monkey kidney epithelial cells (LLC-MK2). LLC-MK2 cells were treated with ISDPs (50, 100, and 200 µM) for 24 h. Cells in medium without peptide served as control. After this period, cells were incubated with MTT (5 mg/mL, 10 μL/well) in serum-free medium for 2 h at 37 °C, the medium was removed, and the crystal formazan dye was solubilized by adding isopropanol with 5% HCl 1 M (100 μL). Absorbance was measured at 540 nm.
(Formazan colour is commonly taken as a measure of viable cells.)

The subject of data set [4] is C. albicans SC5314. The following applies: C. albicans SC5314, CFU assay; EC50 of K10S parent peptide; read-out: EC50 (95% Confidence Intervals); cited from earlier work. An excerpt:
Table 3 In vitro candidacidal activity of in silico designed peptides (ISDPs) against C. albicans SC5314. | column: EC50 ^1 (95% Confidence Intervals)

Data set [5] concerns C. albicans SC5314. The following applies: C. albicans SC5314, parent K10S peptide; cited from earlier work. The method, then: Candidacidal activity of all tested peptides was very fast. After 30 min, in fact, percental killing ranged from 68% (K10S-SS) to nearly 100% (R-10S-RR and K10S-I).
The test system of data set [6] is C. albicans SC5314 cells. Conditions: parent peptide K10S; cited from earlier work. The source says:
The individual amino acid substitutions also influenced the possible mechanism of action of the peptides. […] All ISDPs were characterized by the ability to induce intracellular ROS production (Figure 5).

Data set [7] deals with C. albicans SC5314. Conditions: G. mellonella larvae infected with C. albicans, treated with parent K10S peptide; controls 24 h; previous work; cited from earlier work. The protocol:
Therapeutic activity of ISDPs against C. albicans infection was evaluated in G. mellonella larvae. After the inoculum of a lethal dose of yeast cells, a single injection of peptides led to a significant increase in survival of larvae in comparison with infected animals inoculated with saline. The median survival time was 48 h for larvae treated with R10S-RR and K10S-I, and 24 h for larvae treated with K10T-TT and K10S-SS, versus 24 h for the control group. In a previous work, a median survival time of 72 h was reported for larvae treated with the parent K10S peptide in comparison with 24 h for ...

No end group written: not given here.

What is called cell viability is the share of living cells, or the viability signal relative to a control. As a reminder, the EC50 is the concentration that produces a half-maximal response.

As for KKVSMSCSAS [Peptide K10S-SS], in data set [1], the “percental killing after 30 min” value amounted to 68%. Moreover, the hemolysis in data set [2] (30 min) came to 2.38%; in data set [2] (120 min) it was 2.01%. In data set [3], this sequence registered a cell viability of 92.5 ± 0.11%.

On to KKVTMTCSAS [Peptide K10S], for which the concentration for a half-maximal effect (EC50) in data set [4] was 277 nM. In data set [5], the “percental killing at 30 min” value is given as 36.93%. In addition, the apoptosis induction entry in data set [6] was “lack of induction of apoptotic processes”. The median survival time in data set [7] is reported as 72 h.
